Measurements reported in patent US10717716B2, “1,3,4-oxadiazole derivative compounds as histone deacetylase 6 inhibitor, and the pharmaceutical composition comprising the same” (Chong Kun Dang Pharmaceutical Corp., priority 2015, dated 2020).

Biological target: T1, human recombinant HDAC6 (Homo sapiens, UniProt Q9UBN7)
T1 construct: purchased Calbiochem 382180
T1 sequence (Q9UBN7 1-1215): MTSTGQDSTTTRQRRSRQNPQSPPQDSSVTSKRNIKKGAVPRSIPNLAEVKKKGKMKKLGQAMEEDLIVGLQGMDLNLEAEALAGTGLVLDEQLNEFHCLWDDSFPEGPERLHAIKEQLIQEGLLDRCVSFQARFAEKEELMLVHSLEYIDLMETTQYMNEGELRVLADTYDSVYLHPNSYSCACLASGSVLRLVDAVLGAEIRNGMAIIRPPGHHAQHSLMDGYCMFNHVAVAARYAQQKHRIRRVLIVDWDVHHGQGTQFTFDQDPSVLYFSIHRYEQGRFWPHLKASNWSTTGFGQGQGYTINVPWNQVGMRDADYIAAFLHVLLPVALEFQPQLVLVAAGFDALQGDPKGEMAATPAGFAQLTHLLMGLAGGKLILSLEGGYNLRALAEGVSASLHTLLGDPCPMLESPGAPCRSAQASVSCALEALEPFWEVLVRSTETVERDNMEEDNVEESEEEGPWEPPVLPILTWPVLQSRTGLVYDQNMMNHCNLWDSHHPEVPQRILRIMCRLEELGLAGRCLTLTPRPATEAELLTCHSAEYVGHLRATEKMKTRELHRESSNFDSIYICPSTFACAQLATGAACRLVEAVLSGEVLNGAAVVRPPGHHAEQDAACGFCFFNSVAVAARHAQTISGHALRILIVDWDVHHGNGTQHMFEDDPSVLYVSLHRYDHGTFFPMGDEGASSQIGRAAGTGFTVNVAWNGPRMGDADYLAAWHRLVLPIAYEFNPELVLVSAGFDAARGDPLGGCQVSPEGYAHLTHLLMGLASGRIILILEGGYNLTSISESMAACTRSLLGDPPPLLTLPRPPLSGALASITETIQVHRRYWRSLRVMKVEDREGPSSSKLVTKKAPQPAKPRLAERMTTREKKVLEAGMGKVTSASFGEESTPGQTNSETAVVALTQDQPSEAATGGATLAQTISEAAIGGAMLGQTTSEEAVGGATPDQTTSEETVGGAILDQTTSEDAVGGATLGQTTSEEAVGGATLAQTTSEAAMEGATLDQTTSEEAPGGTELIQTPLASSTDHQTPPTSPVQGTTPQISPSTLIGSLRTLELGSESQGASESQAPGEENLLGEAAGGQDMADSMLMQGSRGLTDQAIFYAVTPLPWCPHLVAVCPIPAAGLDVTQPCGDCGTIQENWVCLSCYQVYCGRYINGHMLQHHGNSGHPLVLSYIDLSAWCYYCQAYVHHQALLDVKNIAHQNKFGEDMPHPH
Test: HDAC6 enzyme activity inhibition assay (HDAC Fluorimetric Drug Discovery Kit)
Assay type: biochemical
Conditions: for HDAC6 selectivity (fold): HDAC6 over HDAC1; for IC50: human recombinant HDAC6, same protocol as HDAC1, read-out: HDAC6
Outline: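 Human recombinant HDAC1 or HDAC6 (0.3 μg) reacted with 10 μM Fluor de Lys-SIRT1 substrate and 5-fold compound dilutions for 60 min at 30 °C. Developer II added for 30 min, fluorescence read at Ex 360/Em 460; IC50 calculated from the readings.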

| Structure (SMILES) | HDAC6 selectivity (fold) | IC50 [nM] |
| --- | --- | --- |
| O=C(N1CCOCC1)N(Cc1ccc(-c2nnc(C(F)(F)F)o2)cc1)c1ccccn1 [Compound 21424, N-(pyridin-2-yl)-N-(4-(5-(trifluoromethyl)-1,3,4-oxadiazol-2-yl)benzyl)morpholine-4-carboxamide] | 54 | 184 |
| O=C(N1CCOCC1)N(Cc1ccc(-c2nnc(C(F)(F)F)o2)cc1)c1ncccn1 [Compound 21425, N-(pyrimidin-2-yl)-N-(4-(5-(trifluoromethyl)-1,3,4-oxadiazol-2-yl)benzyl)morpholine-4-carboxamide] | 77 | 130 |
| O=C(N1CCOCC1)N(Cc1ccc(-c2nnc(C(F)(F)F)o2)cc1)c1ccc(F)cc1 [Compound 21426, N-(4-fluorophenyl)-N-(4-(5-(trifluoromethyl)-1,3,4-oxadiazol-2-yl)benzyl)morpholine-4-carboxamide] | 20 | 489 |
| O=C(N1CCOCC1)N(Cc1ccc(-c2nnc(C(F)(F)F)o2)cc1)c1cccnc1 [Compound 21427, N-(pyridin-3-yl)-N-(4-(5-(trifluoromethyl)-1,3,4-oxadiazol-2-yl)benzyl)morpholine-4-carboxamide] | 79 | 126 |
| O=C(N1CCOCC1)N(Cc1ccc(-c2nnc(C(F)(F)F)o2)cc1)c1ccccc1F [Compound 21428, N-(2-fluorophenyl)-N-(4-(5-(trifluoromethyl)-1,3,4-oxadiazol-2-yl)benzyl)morpholine-4-carboxamide] | 75 | 134 |
| O=C(N1CCOCC1)N(Cc1ccc(-c2nnc(C(F)(F)F)o2)cc1Cl)c1ccccc1 [Compound 21429, N-(2-chloro-4-(5-(trifluoromethyl)-1,3,4-oxadiazol-2-yl)benzyl)-N-phenylmorpholine-4-carboxamide] | 5 | 2080 |
| O=C(N1CCOCC1)N(Cc1c(F)cc(-c2nnc(C(F)(F)F)o2)cc1F)c1ccccc1 [Compound 21431, N-(2,6-difluoro-4-(5-(trifluoromethyl)-1,3,4-oxadiazol-2-yl)benzyl)-N-phenylmorpholine-4-carboxamide] | 39 | 256 |
| O=C(N1CCOCC1)N(Cc1c(F)cc(-c2nnc(C(F)F)o2)cc1F)c1ccccc1 [Compound 21432, N-(4-(5-(difluoromethyl)-1,3,4-oxadiazol-2-yl)-2,6-difluorobenzyl)-N-phenylmorpholine-4-carboxamide] | 208 | 48 |
| O=C(N1CCS(=O)(=O)CC1)N(Cc1ccc(-c2nnc(C(F)(F)F)o2)cc1)c1ccc(F)cc1F [Compound 21433, N-(2,4-difluorophenyl)-N-(4-(5-(trifluoromethyl)-1,3,4-oxadiazol-2-yl)benzyl)thiomorpholine-4-carboxamide 1,1-dioxide] | 172 | 58 |
| Cc1ccc(N(Cc2ccc(-c3nnc(C(F)(F)F)o3)cc2)C(=O)N2CCS(=O)(=O)CC2)c(F)c1 [Compound 21434, N-(2-fluoro-4-methylphenyl)-N-(4-(5-(trifluoromethyl)-1,3,4-oxadiazol-2-yl)benzyl)thiomorpholine-4-carboxamide 1,1-dioxide] | 53 | 188 |
| COc1ccccc1N(Cc1ccc(-c2nnc(C(F)(F)F)o2)cc1)C(=O)N1CCS(=O)(=O)CC1 [Compound 21440, N-(2-methoxyphenyl)-N-(4-(5-(trifluoromethyl)-1,3,4-oxadiazol-2-yl)benzyl)thiomorpholine-4-carboxamide 1,1-dioxide] | 37 | 267 |
| CS(=O)(=O)c1ccc(N(Cc2ccc(-c3nnc(C(F)F)o3)cc2)C(=O)N2CCOCC2)cc1 [Compound 21444, N-(4-(5-(difluoromethyl)-1,3,4-oxadiazol-2-yl)benzyl)-N-(4-(methylsulfonyl)phenyl)morpholine-4-carboxamide] | 57 | 175 |
| Cc1ccc(N(Cc2ccc(-c3nnc(C(F)(F)F)o3)cc2)C(=O)N2CCS(=O)(=O)CC2)cc1 [Compound 21445, N-(p-tolyl)-N-(4-(5-(trifluoromethyl)-1,3,4-oxadiazol-2-yl)benzyl)thiomorpholine-4-carboxamide 1,1-dioxide] | 33 | 303 |
| Cc1ccc(N(Cc2ccc(-c3nnc(C(F)F)o3)cc2)C(=O)N2CCS(=O)(=O)CC2)cc1 [Compound 21446, N-(4-(5-(difluoromethyl)-1,3,4-oxadiazol-2-yl)benzyl)-N-(p-tolyl)thiomorpholine-4-carboxamide 1,1-dioxide] | 115 | 87 |
| O=C(N1CCS(=O)(=O)CC1)N(Cc1ccc(-c2nnc(C(F)(F)F)o2)cc1)c1ccccc1F [Compound 21447, N-(2-fluorophenyl)-N-(4-(5-(trifluoromethyl)-1,3,4-oxadiazol-2-yl)benzyl)thiomorpholine-4-carboxamide 1,1-dioxide] | 196 | 51 |
| O=C(N1CCS(=O)(=O)CC1)N(Cc1ccc(-c2nnc(C(F)F)o2)cc1)c1ccccc1F [Compound 21448, N-(4-(5-(difluoromethyl)-1,3,4-oxadiazol-2-yl)benzyl)-N-(2-fluorophenyl)thiomorpholine-4-carboxamide 1,1-dioxide] | 278 | 36 |
| O=C(N1CCS(=O)(=O)CC1)N(Cc1ccc(-c2nnc(C(F)(F)F)o2)cc1)c1ccccc1C(F)(F)F [Compound 21449, N-(4-(5-(trifluoromethyl)-1,3,4-oxadiazol-2-yl)benzyl)-N-(2-(trifluoromethyl)phenyl)thiomorpholine-4-carboxamide 1,1-dioxide] | 7 | 1530 |
| O=C(N1CCS(=O)(=O)CC1)N(Cc1ccc(-c2nnc(C(F)F)o2)cc1)c1ccccc1C(F)(F)F [Compound 21450, N-(4-(5-(difluoromethyl)-1,3,4-oxadiazol-2-yl)benzyl)-N-(2-(trifluoromethyl)phenyl)thiomorpholine-4-carboxamide 1,1-dioxide] | 19 | 530 |
| Cc1ccccc1N(Cc1ccc(-c2nnc(C(F)(F)F)o2)cc1)C(=O)N1CCS(=O)(=O)CC1 [Compound 21451, N-(o-tolyl)-N-(4-(5-(trifluoromethyl)-1,3,4-oxadiazol-2-yl)benzyl)thiomorpholine-4-carboxamide 1,1-dioxide] | 30 | 333 |
| Cc1ccccc1N(Cc1ccc(-c2nnc(C(F)F)o2)cc1)C(=O)N1CCS(=O)(=O)CC1 [Compound 21452, N-(4-(5-(difluoromethyl)-1,3,4-oxadiazol-2-yl)benzyl)-N-(o-tolyl)thiomorpholine-4-carboxamide 1,1-dioxide] | 93 | 108 |
| COc1ccc(N(Cc2ccc(-c3nnc(C(F)F)o3)cc2)C(=O)N2CCS(=O)(=O)CC2)cc1 [Compound 21453, N-(4-(5-(difluoromethyl)-1,3,4-oxadiazol-2-yl)benzyl)-N-(4-methoxyphenyl)thiomorpholine-4-carboxamide 1,1-dioxide] | 85 | 117 |
| COc1ccc(N(Cc2ccc(-c3nnc(C(F)(F)F)o3)cn2)C(=O)N2CCS(=O)(=O)CC2)cc1 [Compound 21454, N-(4-methoxyphenyl)-N-((5-(5-(trifluoromethyl)-1,3,4-oxadiazol-2-yl)pyridin-2-yl)methyl)thiomorpholine-4-carboxamide 1,1-dioxide] | 94 | 106 |
| COc1ccc(N(Cc2ccc(-c3nnc(C(F)F)o3)cn2)C(=O)N2CCS(=O)(=O)CC2)cc1 [Compound 21455, N-((5-(5-(difluoromethyl)-1,3,4-oxadiazol-2-yl)pyridin-2-yl)methyl)-N-(4-methoxyphenyl)thiomorpholine-4-carboxamide 1,1-dioxide] | 294 | 34 |
